Experimental data reported in publication PMC12472391, “Borylated Five-Membered Ring Iminosugars: Synthesis, Spectroscopic Analysis, and Biological Evaluation for Glycosidase Inhibition and Anticancer Properties for Application in Boron Neutron Capture Therapy (BNCT)—Part 1” (Pharmaceuticals, 2025).

Legend:
[1] = test system: HT29 colon carcinoma cells; assay: Cancer screening, MTT growth inhibition; format: cell-based; conditions: 72-h exposure; for inhibition at 25 µM / GI50: Homo sapiens; for inhibition at 25 µM: HT-29, 25 µM, read-out: HT29 Colon Carcinoma, Percentage (%) Cell Growth Inhibition in response to 25 µM of Drug; for GI50: HT-29, dose response, read-out: HT29 Colon Carcinoma, GI50 = Concentration (µM) that inhibits cell growth by 50%
Experimental: (§1) Two assays were run: the dose screen to ascertain cell growth inhibition in response to 25 µM of drug (on a blue background) and the dose response (GI50) (on a green background). For a discussion of BNCT as a radiotherapeutic modality, a rationalisation is provided here.
(§2) All test agents were prepared as stock solutions (20 mM) in dimethyl sulfoxide (DMSO) and stored at −20 °C. Cell lines used in the study included HT29, (colorectal carcinoma); U87, SJ-G2, (glioblastoma); MCF-7, (breast carcinoma); A2780 (ovarian carcinoma); H460 (lung carcinoma); A431 (skin carcinoma); Du145 (prostate carcinoma); BE2-C (neuroblastoma) and MiaPaCa-2 (pancreatic carcinoma); together with the one non-tumour derived normal breast cell line (MCF10A). All cell lines were incubated in a humidified atmosphere 5% CO2 at 37 °C. The cancer cell lines were maintained in Dulbecco’s modified Eagle’s medium (DMEM; Sigma, Australia) supplemented with foetal bovine serum (10%), sodium pyruvate (10 mM), penicillin (100 IUmL^−1), streptomycin (100 µg mL^−1), and L-glutamine (2 mM).
(§3) Growth inhibition was determined by plating cells in duplicate in medium (100 µL) at a density of 2500–4000 cells per well in 96-well plates. On day 0 (24 h after plating), when the cells are in logarithmic growth, medium (100 µL) with or without the test agent was added to each well. After a 72-h drug exposure, growth inhibitory effects were evaluated using the MTT (3-(4,5-dimethyltiazol-2-yl)-2,5-diphenyltetrazolium bromide) assay and absorbance read at 540 nm. The percentage growth inhibition was calculated at a fixed concentration of 25 µM, based on the difference between the optical density values on day 0 and those at the end of drug exposure. Each data point is the mean ± the standard error of the mean (SEM) calculated from three replicates, which were performed on separate occasions and separate cell line passages.

[2] = test system: BE2-C neuroblastoma cells; assay: Cancer screening, MTT growth inhibition; format: cell-based; conditions: 72-h exposure
Experimental: as §1, §2, §3

[3] = test system: MIA-Pa-Ca2 pancreatic carcinoma cells; assay: Cancer screening, MTT growth inhibition; format: cell-based; conditions: 72-h exposure; for inhibition at 25 µM / GI50: Homo sapiens; for inhibition at 25 µM: MIA PaCa-2, 25 µM, read-out: MIA-Pa-Ca2 Pancreatic Carcinoma, Percentage (%) Cell Growth Inhibition in response to 25 µM of Drug; for GI50: MIA PaCa-2, dose response, read-out: MIA-Pa-Ca2 Pancreatic Carcinoma, GI50 = Concentration (µM) that inhibits cell growth by 50%
Experimental: as §1, §2, §3

U87 glioblastoma cells = assay: Cancer screening, MTT growth inhibition; format: cell-based; conditions: 72-h exposure
Experimental: as §1, §2, §3

SJ-G2 glioblastoma cells = assay: Cancer screening, MTT growth inhibition; format: cell-based
Experimental: as §1, §2, §3

[4] = test system: A2780 ovarian carcinoma cells; assay: Cancer screening, MTT growth inhibition; format: cell-based; conditions: 72-h exposure; for inhibition at 25 µM / GI50: Homo sapiens; for inhibition at 25 µM: A2780, 25 µM, read-out: A2780 Ovarian Carcinoma, Percentage (%) Cell Growth Inhibition in response to 25 µM of Drug; for GI50: A2780, dose response, read-out: A2780 Ovarian Carcinoma, GI50 = Concentration (µM) that inhibits cell growth by 50%
Experimental: as §1, §2, §3

[5] = test system: MCF-7 breast carcinoma cells; assay: Cancer screening, MTT growth inhibition; format: cell-based
Experimental: as §1, §2, §3

[6] = test system: Du145 prostate carcinoma cells; assay: Cancer screening, MTT growth inhibition; format: cell-based
Experimental: as §1, §2, §3

[7] = test system: A431 skin carcinoma cells; assay: Cancer screening, MTT growth inhibition; format: cell-based; conditions: 72-h exposure; for inhibition at 25 µM / GI50: Homo sapiens; for inhibition at 25 µM: A-431, 25 µM, read-out: A431 Skin Carcinoma, Percentage (%) Cell Growth Inhibition in response to 25 µM of Drug; for GI50: A-431, dose response, read-out: A431 Skin Carcinoma, GI50 = Concentration (µM) that inhibits cell growth by 50%
Experimental: as §1, §2, §3

[8] = test system: H460 lung carcinoma cells; assay: Cancer screening, MTT growth inhibition; format: cell-based; conditions: 72-h exposure; for inhibition at 25 µM / GI50: Homo sapiens; for inhibition at 25 µM: NCI-H460, 25 µM, read-out: H460 Lung Carcinoma, Percentage (%) Cell Growth Inhibition in response to 25 µM of Drug; for GI50: NCI-H460, dose response, read-out: H460 Lung Carcinoma, GI50 = Concentration (µM) that inhibits cell growth by 50%
Experimental: as §1, §2, §3

α-D-glucosidase (yeast) = target: T1, α-D-glucosidase (yeast) (Saccharomyces cerevisiae, UniProt P53341); assay: Glycosidase inhibition, Table 7; format: biochemical; conditions: 1 mg/mL aqueous solution added, 27 °C, run in water; for inhibition at 1000 µg/mL (stock): read-out: α-D-Glucosidase Yeast, percentage inhibition
T1 construct: purchased Sigma
Experimental: (§4) All enzymes and para-nitrophenyl substrates were purchased from Sigma. Enzymes were assayed at 27 °C in citric acid (0.1M)/disodium hydrogen phosphate (0.2 M) buffers at the optimum pH for the enzyme. The incubation mixture consisted of […] enzyme solution, […] of 1 mg/mL aqueous solution of extract, and […] of the appropriate 5 mM para-nitrophenyl substrate made up in buffer at the optimum pH for the enzyme. The reactions were stopped by the addition of […] 0.4 M glycine (pH 10.4) during the exponential phase of the reaction, which had been determined at the beginning using uninhibited assays in which water replaced the inhibitor. Final absorbances were read at 405 nm using a Versamax microplate reader (Molecular Devices). Assays were carried out in triplicate, and the values given are the means of the three replicates per assay. All reactions run in water.

[9] = test system: β-D-glucuronidase (bovine liver); assay: Glycosidase inhibition, Table 7; format: biochemical; conditions: 1 mg/mL aqueous solution added, 27 °C, run in water
Experimental: as §4

β-D-glucosidase (almond) = assay: Glycosidase inhibition, Table 7; format: biochemical; conditions: 1 mg/mL aqueous solution added, 27 °C, run in water
Experimental: as §4

α-D-glucosidase (rice) = α-D-glucosidase (rice) (Oryza sativa subsp. japonica, UniProt Q653V7); assay: Glycosidase inhibition, Table 6 (Laboratory 1); format: biochemical
[10] = Appearance: 1 mL of water added to 1 mg of solid, and mixed; format: physicochemical

T1 sequence (P53341 whole entry): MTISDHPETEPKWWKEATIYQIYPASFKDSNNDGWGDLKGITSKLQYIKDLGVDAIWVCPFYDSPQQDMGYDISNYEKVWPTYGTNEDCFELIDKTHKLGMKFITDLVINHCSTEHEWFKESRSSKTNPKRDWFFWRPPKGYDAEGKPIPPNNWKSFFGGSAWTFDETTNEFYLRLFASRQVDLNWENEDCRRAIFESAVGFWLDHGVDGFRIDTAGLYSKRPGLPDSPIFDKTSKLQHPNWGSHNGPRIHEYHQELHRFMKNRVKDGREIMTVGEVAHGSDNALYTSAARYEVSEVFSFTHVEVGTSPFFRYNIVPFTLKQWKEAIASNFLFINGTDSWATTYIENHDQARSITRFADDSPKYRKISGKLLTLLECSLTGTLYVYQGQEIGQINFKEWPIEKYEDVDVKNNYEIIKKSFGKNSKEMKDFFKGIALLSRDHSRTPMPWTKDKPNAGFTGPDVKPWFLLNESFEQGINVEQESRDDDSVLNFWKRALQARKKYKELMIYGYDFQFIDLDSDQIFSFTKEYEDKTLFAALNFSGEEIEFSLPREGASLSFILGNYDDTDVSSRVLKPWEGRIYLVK
Chain of α-D-glucosidase (rice) (Q653V7 34-885): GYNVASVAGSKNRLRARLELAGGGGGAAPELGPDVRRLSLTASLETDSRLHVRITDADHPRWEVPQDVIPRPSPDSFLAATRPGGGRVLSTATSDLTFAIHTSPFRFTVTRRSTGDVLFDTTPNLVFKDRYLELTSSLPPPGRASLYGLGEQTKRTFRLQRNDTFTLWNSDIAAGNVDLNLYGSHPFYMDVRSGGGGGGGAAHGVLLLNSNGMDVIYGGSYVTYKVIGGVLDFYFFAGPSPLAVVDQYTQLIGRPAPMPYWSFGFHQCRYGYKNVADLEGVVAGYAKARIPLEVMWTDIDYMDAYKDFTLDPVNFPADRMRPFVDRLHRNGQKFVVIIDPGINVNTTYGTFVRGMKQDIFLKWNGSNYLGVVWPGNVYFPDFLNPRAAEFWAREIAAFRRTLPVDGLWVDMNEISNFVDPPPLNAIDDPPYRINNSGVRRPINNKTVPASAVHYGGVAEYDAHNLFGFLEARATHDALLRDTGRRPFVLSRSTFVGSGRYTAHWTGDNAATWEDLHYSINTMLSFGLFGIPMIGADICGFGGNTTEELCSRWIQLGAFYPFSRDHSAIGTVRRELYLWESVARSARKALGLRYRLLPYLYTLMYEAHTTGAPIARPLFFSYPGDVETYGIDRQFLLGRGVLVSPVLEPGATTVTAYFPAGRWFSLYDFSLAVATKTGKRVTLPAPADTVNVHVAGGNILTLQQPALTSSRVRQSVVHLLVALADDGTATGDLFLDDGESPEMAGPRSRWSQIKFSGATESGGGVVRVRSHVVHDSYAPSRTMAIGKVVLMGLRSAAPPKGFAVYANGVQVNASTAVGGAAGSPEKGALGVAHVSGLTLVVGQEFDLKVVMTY

SMILES | β-D-Glucuronidase Bovine Liver, percentage inhibition [9] [%] | β-D-Glucosidase Almond, percentage inhibition (β-D-glucosidase (almond)) [%] | Appearance [10] | inhibition at 25 µM [1] [%] | inhibition at 25 µM [3] [%] | inhibition at 25 µM [4] [%] | inhibition at 25 µM [7] [%] | inhibition at 25 µM [8] [%] | GI50 [1] [µM] | GI50 [3] [µM] | GI50 [4] [µM] | GI50 [7] [µM] | GI50 [8] [µM] | inhibition at 1000 µg/mL (stock) (α-D-glucosidase (yeast)) [%] | inhibition at 1000 µM (α-D-glucosidase (rice)) [%] | further results
N[C@@H](Cc1ccc(B(O)O)cc1)C(=O)O [^10B-BPA, reference compound] | −1 | 3 | Some in solution with undissolved sediment | – | – | – | – | – | – | – | – | – | – | – | – | HT29 Colon Carcinoma, Percentage (%) Cell Growth Inhibition in response to 25 µM of Drug ([1]; 25 µM): * 15 ± 4%; BE2-C Neuroblastoma, Percentage (%) Cell Growth Inhibition in response to 25 µM of Drug [2]: * 10 ± 6%; MIA-Pa-Ca2 Pancreatic Carcinoma, Percentage (%) Cell Growth Inhibition in response to 25 µM of Drug ([3]; 25 µM): * 11 ± 3%; U87 Glioblastoma, Percentage (%) Cell Growth Inhibition in response to 25 µM of Drug (U87 glioblastoma cells): * <0%; SJ-G2 Glioblastoma, Percentage (%) Cell Growth Inhibition in response to 25 µM of Drug (SJ-G2 glioblastoma cells; 72-h exposure): * 5 ± 10%; A2780 Ovarian Carcinoma, Percentage (%) Cell Growth Inhibition in response to 25 µM of Drug ([4]; 25 µM): * 8 ± 4%; MCF-7 Breast Carcinoma, Percentage (%) Cell Growth Inhibition in response to 25 µM of Drug ([5]; 72-h exposure): * 1 ± 3%; Du145 Prostate Carcinoma, Percentage (%) Cell Growth Inhibition in response to 25 µM of Drug ([6]; 72-h exposure): * 15 ± 9%; A431 Skin Carcinoma, Percentage (%) Cell Growth Inhibition in response to 25 µM of Drug ([7]; 25 µM): * 4 ± 4%; H460 Lung Carcinoma, Percentage (%) Cell Growth Inhibition in response to 25 µM of Drug ([8]; 25 µM): * 8 ± 5%; α-D-Glucosidase Yeast, percentage inhibition (α-D-glucosidase (yeast)): 3.4%; α-D-Glucosidase Rice, inhibition % at 100 μM (α-D-glucosidase (rice); 100 μM): ^c NI ^d (0%)
CC1(C)O[C@H]2O[C@H]3[C@@H]([C@H]2O1)N(Cc1ccc(B2OC(C)(C)C(C)(C)O2)cc1)C[C@H]3O [para 6, N-(4-Methylphenylboronic acid pinacol ester)-3,6-dideoxy-3,6-imino-1,2-O-isopropylidene-α-D-gulofuranose] | – | – | Completely insoluble | 8 | 9 | 14 | 6 | 10 | – | – | – | – | – | – | – | inhibition at 25 µM ([2]; Homo sapiens, BE(2)-C, read-out: BE2-C Neuroblastoma, Percentage (%) Cell Growth Inhibition in response to 25 µM of Drug): 5%; inhibition at 25 µM (U87 glioblastoma cells; read-out: U87 Glioblastoma, Percentage (%) Cell Growth Inhibition in response to 25 µM of Drug): 7%; inhibition at 25 µM (SJ-G2 glioblastoma cells; SJ-G2, 72-h exposure, read-out: SJ-G2 Glioblastoma, Percentage (%) Cell Growth Inhibition in response to 25 µM of Drug): 9%; inhibition at 25 µM ([5]; Homo sapiens, MCF7, 72-h exposure, read-out: MCF-7 Breast Carcinoma, Percentage (%) Cell Growth Inhibition in response to 25 µM of Drug): 3%; inhibition at 25 µM ([6]; Homo sapiens, DU-145, 72-h exposure, read-out: Du145 Prostate Carcinoma, Percentage (%) Cell Growth Inhibition in response to 25 µM of Drug): < 0%; inhibition at 100 µM (α-D-glucosidase (rice)): 0%
OB(O)c1ccc(CN2CC(O)C3OC(O)C(O)C32)cc1 [para 7, N-(4-Methylphenylboronic acid)-3,6-dideoxy-3,6-imino-D-gulofuranose] | 1.1 | 68.1 | In solution | 15 ± 3 | 14 | 27 ± 2 | 9 ± 5 | 9 ± 6 | > 50 | > 50 | > 50 | > 50 | > 50 | 4.2 | 0 | –
OC[C@H](O)[C@@H]1[C@H](O)[C@H](O)CN1Cc1ccc(B(O)O)cc1 [para 8, N-(4-Methylphenylboronic acid)-1,4-dideoxy-1,4-imino-L-gulitol] | 2.4 | 23.9 | In solution | 5 ± 2 | 11 ± 1 | 14 ± 7 | 0 | 1 ± 2 | > 50 | > 50 | > 50 | > 50 | > 50 | 9.7 | 8.2 | –
